# Results as given in patent publication US20210220374A1, “METHODS OF TREATING TE[…]” (Clarus Therapeutics, Inc., priority 2013, published 2021).
# Columns and labels:
# [1] = Contingency table classification of C(t) acceptance range as surrogate for Cavg; design: species or system hypogonadal men; conditions: for Percent of Subjects: C(t) in range / Percent of Subjects: C(t) too high / Percent of Subjects: C(t) too low / Percent of Subjects: Cavg in range & C(t) in range / Percent of Subjects: Cavg in range & C(t) too high / Percent of Subjects: Cavg in range & C(t) too low / Percent of Subjects: Cavg too high & C(t) in range / Percent of Subjects: Cavg too high & C(t) too high / Percent of Subjects: Cavg too low & C(t) in range / Percent of Subjects: Cavg too low & C(t) too low: Cavg 300-1000 ng/dL; for Percent of subjects: Cavg in Range F & C(t) in Range F (total of too high and too low): Cavg 300-1000
# Text: For the contingency table approach, the number and percentage of subjects that fell into each of the following seven categories were enumerated, for each of the candidate time points, and for each candidate target range for Cavg, and for each candidate acceptance range for C(t). • 1. Subjects with Cavg within range and with C(t) within range • 2. Subjects with Cavg below range and with C(t) below range • 3. Subjects with Cavg above range and with C(t) above range • 4. Subjects with Cavg within range but with C(t) below range • 5. Subjects with Cavg within range but with C(t) above range • 6. Subjects with Cavg below range, but with C(t) within range • 7. Subjects with Cavg above range, but with C(t) within range
# If one defines a value as being “within range” as positive, and being “outside of range” as negative, then Group 1 is subjects that are “true positives”, Groups 2 and 3 are “true negatives”, groups 4 and 5 are “false negatives”, and groups 6 and 7 are “false positives”. Groups, 1, 2 and 3 represent successful predictions because C(t) is an appropriate surrogate for Cavg; Groups 4, 5, 6 and 7 are prediction failures because C(t) is an inaccurate surrogate for Cavg.
# Correlations and contingency table calculations were performed using built-in functions in the Excel module of Microsoft Office 2003 (Redmond, Wash.). Graphs were produced using the built-in charting capabilities of Excel.
# [2] = Example 4 food effects study of Formulation B; assay type: in vivo, hypogonadal men
# Method: Subjects were randomized to receive the drug in the fasting state or 30 minutes after consumption of meals containing ˜800 calories with specific amounts of fat (wt %): very low fat (6-10%); low fat (20%); “normal” diet fat (30%); or high fat (50%). The “normal” diet was, a priori, established as the comparator (i.e., reference diet) for purposes of statistical comparisons. Serial blood samples were collected for a total of 24 hours after drug administration to determine serum testosterone and dihydrotestosterone (DHT) levels by liquid chromatography-mass spectroscopy (LC/MS/MS).
# [3] = C(6) alternate, C(t) acceptance 250-1700
# [4] = targeted Cavg 300-1000 ng/dL, 200 mg T BID as TU
smiles,measurement,setting,value
"CCCCCCCCCCC(=O)O[C@H]1CC[C@H]2[C@@H]3CCC4=CC(=O)CC[C@]4(C)[C@H]3CC[C@]12C [TU, testosterone undecanoate]",Percent of Subjects: C(t) in range,"[1]; C(5), C(t) acceptance 250-1400",82.9%
same,Percent of Subjects: C(t) too high,"[1]; C(5), C(t) acceptance 250-1400",4.9%
same,Percent of Subjects: C(t) too low,"[1]; C(5), C(t) acceptance 250-1400",12.2%
same,Percent of Subjects: Cavg in range & C(t) in range,"[1]; C(5), C(t) acceptance 250-1400",75.6%
same,Percent of Subjects: Cavg in range & C(t) too high,"[1]; C(5), C(t) acceptance 250-1400",2.4%
same,Percent of Subjects: Cavg in range & C(t) too low,"[1]; C(5), C(t) acceptance 250-1400",2.4%
same,Percent of Subjects: Cavg too high & C(t) in range,"[1]; C(5), C(t) acceptance 250-1400",4.9%
same,Percent of Subjects: Cavg too high & C(t) too high,"[1]; C(5), C(t) acceptance 250-1400",2.4%
same,Percent of Subjects: Cavg too low & C(t) in range,"[1]; C(5), C(t) acceptance 250-1400",2.4%
same,Percent of Subjects: Cavg too low & C(t) too low,"[1]; C(5), C(t) acceptance 250-1400",9.8%
same,Percent of subjects: Cavg in Range F & C(t) in Range F (total of too high and too low),"[1]; C(5), C(t) acceptance 250-1400",12.2%
same,Percent of Subjects: C(t) in range,[1]; [3],90.2%
same,Percent of Subjects: C(t) too high,[1]; [3],0.0%
same,Percent of Subjects: C(t) too low,[1]; [3],9.8%
same,Percent of Subjects: Cavg in range & C(t) in range,[1]; [3],80.5%
same,Percent of Subjects: Cavg in range & C(t) too high,[1]; [3],0.0%
same,Percent of Subjects: Cavg in range & C(t) too low,[1]; [3],0.0%
same,Percent of Subjects: Cavg too high & C(t) in range,[1]; [3],7.3%
same,Percent of Subjects: Cavg too high & C(t) too high,[1]; [3],0.0%
same,Percent of Subjects: Cavg too low & C(t) in range,[1]; [3],2.4%
same,Percent of Subjects: Cavg too low & C(t) too low,[1]; [3],9.8%
same,Percent of subjects: Cavg in Range F & C(t) in Range F (total of too high and too low),[1]; [3],9.8%
same,Percent of Subjects: C(t) in range,"[1]; C(6), C(t) acceptance 250-1100",75.6%
same,Percent of Subjects: C(t) too high,"[1]; C(6), C(t) acceptance 250-1100",14.6%
same,Percent of Subjects: C(t) too low,"[1]; C(6), C(t) acceptance 250-1100",9.8%
same,Percent of Subjects: Cavg in range & C(t) in range,"[1]; C(6), C(t) acceptance 250-1100",73.2%
same,Percent of Subjects: Cavg in range & C(t) too high,"[1]; C(6), C(t) acceptance 250-1100",7.3%
same,Percent of Subjects: Cavg in range & C(t) too low,"[1]; C(6), C(t) acceptance 250-1100",0.0%
same,Percent of Subjects: Cavg too high & C(t) in range,"[1]; C(6), C(t) acceptance 250-1100",0.0%
same,Percent of Subjects: Cavg too high & C(t) too high,"[1]; C(6), C(t) acceptance 250-1100",7.3%
same,Percent of Subjects: Cavg too low & C(t) in range,"[1]; C(6), C(t) acceptance 250-1100",2.4%
same,Percent of Subjects: Cavg too low & C(t) too low,"[1]; C(6), C(t) acceptance 250-1100",9.8%
same,Percent of subjects: Cavg in Range F & C(t) in Range F (total of too high and too low),"[1]; C(6), C(t) acceptance 250-1100",17.1%
same,Percent of Subjects: C(t) in range,"[1]; C(8), C(t) acceptance 200-1300",95.1%
same,Percent of Subjects: C(t) too high,"[1]; C(8), C(t) acceptance 200-1300",4.9%
same,Percent of Subjects: C(t) too low,"[1]; C(8), C(t) acceptance 200-1300",0.0%
same,Percent of Subjects: Cavg in range & C(t) in range,"[1]; C(8), C(t) acceptance 200-1300",80.5%
same,Percent of Subjects: Cavg in range & C(t) too high,"[1]; C(8), C(t) acceptance 200-1300",0.0%
same,Percent of Subjects: Cavg in range & C(t) too low,"[1]; C(8), C(t) acceptance 200-1300",0.0%
same,Percent of Subjects: Cavg too high & C(t) in range,"[1]; C(8), C(t) acceptance 200-1300",2.4%
same,Percent of Subjects: Cavg too high & C(t) too high,"[1]; C(8), C(t) acceptance 200-1300",4.9%
same,Percent of Subjects: Cavg too low & C(t) in range,"[1]; C(8), C(t) acceptance 200-1300",12.2%
same,Percent of Subjects: Cavg too low & C(t) too low,"[1]; C(8), C(t) acceptance 200-1300",0.0%
same,Percent of subjects: Cavg in Range F & C(t) in Range F (total of too high and too low),"[1]; C(8), C(t) acceptance 200-1300",4.9%
same,Percent of Subjects: C(t) in range,"[1]; C(12), C(t) acceptance 100-680",92.7%
same,Percent of Subjects: C(t) too high,"[1]; C(12), C(t) acceptance 100-680",4.9%
same,Percent of Subjects: C(t) too low,"[1]; C(12), C(t) acceptance 100-680",2.4%
same,Percent of Subjects: Cavg in range & C(t) in range,"[1]; C(12), C(t) acceptance 100-680",80.5%
same,Percent of Subjects: Cavg in range & C(t) too high,"[1]; C(12), C(t) acceptance 100-680",0.0%
same,Percent of Subjects: Cavg in range & C(t) too low,"[1]; C(12), C(t) acceptance 100-680",0.0%
same,Percent of Subjects: Cavg too high & C(t) in range,"[1]; C(12), C(t) acceptance 100-680",2.4%
same,Percent of Subjects: Cavg too high & C(t) too high,"[1]; C(12), C(t) acceptance 100-680",4.9%
same,Percent of Subjects: Cavg too low & C(t) in range,"[1]; C(12), C(t) acceptance 100-680",9.8%
same,Percent of Subjects: Cavg too low & C(t) too low,"[1]; C(12), C(t) acceptance 100-680",2.4%
same,Percent of subjects: Cavg in Range F & C(t) in Range F (total of too high and too low),"[1]; C(12), C(t) acceptance 100-680",7.3%
same,Percent of Subjects: Cavg in range,[1]; [4],80.5%
same,Percent of Subjects: Cavg to low,[1]; [4],12.2%
same,Percent of Subjects: Cavg too high,[1]; [4],7.3%
same,Difference in serum T response,[2]; high-fat vs normal-fat meal,< 30%
same,"90% confidence interval, serum T PK parameters","[2]; low-fat vs normal fat diet, single 300 mg T dose",85-125%
